Test results as given in patent publication US20230227466A1, “SUBSTITUTED THIENOPYRIMIDINES THAT INTERACT WITH THE RAS SUPERFAMILY FOR THE TREATMENT OF CANCERS, INFLAMMATORY DISEASES, RASOPATHIES, AND FIBROTIC DISEASE” (SHY Therapeutics, LLC, priority 2020, published 2023).
Where two headings read alike, the source gives them in different places.

Legend:
Kinetic solubility assay = format: physicochemical; conditions: phosphate-buffered saline pH 7.4 with 2% DMSO, aqueous buffer, kinetic from dmso stock; pH 7.4 PBS + 2% DMSO, 25° C., two hours; effective range approximately 2-400 μM
Protocol: Equipment: Water purification system Millipore Milli-Q Gradient A10 (Millipore, France); Thermomixer R Block, 1.5 ml (Eppendorf, Germany; Cat #5355); Matrix Multichannel Electronic Pipette 2-125 μL, 5-250 μL, 15-1250 μL (Thermo Scientific, USA; Cat ##2011, 2012, 2004); SpectraMax Plus Microplate Reader (Molecular Devices, USA; Product #02196); Multi-Well Plate Vacuum Manifold (Pall Corporation, USA; Product #5014); and Vacuum pump (Millipore, USA; Model #XX5500000)
Analytical System: The measurements were performed using SpectraMax Plus reader in UV-Vis mode. Acquisition and analysis of the data were performed using SoftMax Pro v.5.4 (Molecular Devices) and Excel 2010 data analysis software.
Methods: Briefly, using a 20 mM stock solution of the compound in 100% DMSO dilutions were prepared to a theoretical concentration of 400 μM in duplicates in phosphate-buffered saline pH 7.4 (138 mM NaCl, 2.7 mM KCl, 10 mM K-phosphate) with 2% final DMSO. The experimental compound dilutions in PBS were further allowed to equilibrate at 25° C. on a thermostatic shaker for two hours and then filtered through HTS filter plates using a vacuum manifold. The filtrates of test compounds were diluted 2-fold with acetonitrile with 2% DMSO before measuring.
In parallel, compound dilutions in acetonitrile/PBS (1:1) were prepared to theoretical concentrations of 0 μM (blank), 10 μM, 25 μM, 50 μM, 100 μM, and 200 μM with 2% final DMSO to generate calibration curves. Ondansetron was used as reference compound to control proper assay performance. 200 μL of each sample was transferred to 96-well plate and measured in 200-550 nm range with 5 nm step.
The concentrations of compounds in PBS filtrate are calculated using a dedicated Microsoft Excel calculation script. Proper absorbance wavelengths for calculations are selected for each compound manually based on absorbance maximums (absolute absorbance unit values for the minimum and maximum concentration points within 0-3 OD range). Each of the final datasets is additionally visually evaluated by the operator and goodness of fit (R2) is calculated for each calibration curve. […] This method is not suitable for liquid (at 25° C.) substances (were not present among the tested compounds). Table 3A provides the kinetic solubility for some of the exemplified compounds.

KRas Q61H mutant = target: T1, KRas Q61H mutant (Homo sapiens, UniProt P01116, Q61H); test: Ras GTP binding domain inhibition assay (labeled-GTP competition, cell-free)
T1 construct: made in house
Procedure, shortened: (§1)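 Labeled-GTP competition read out as bound Cy3/Cy5-GTP fluorescence after washes, with 100 nM tracer for 45 min at RT. Before tracer, compounds at 20 μM, or a dilution series for IC50, sat 3 h at RT on the Ni-immobilized His-tagged GTPase. Sos GEF (10-30 μg/mL) was optionally present for the last hour.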

KRas G12C mutant = target: T2, KRas G12C mutant (Homo sapiens, UniProt P01116, G12C); test: as above
T2 construct: made in house
Procedure, shortened: as §1

KRas G12D mutant = target: T3, KRas G12D mutant (Homo sapiens, UniProt P01116, G12D); test: as above
T3 construct: made in house
Procedure, shortened: as §1

KRas wild type = KRas wild type (Homo sapiens, UniProt P01116); test: as above; parameters: made in house
Procedure, shortened: as §1

Rho-A = Rho-A (Homo sapiens, UniProt P61586); test: as above; parameters: made in house
Procedure, shortened: as §1

Rac-1 = Rac-1 (Homo sapiens, UniProt P63000); test: as above; parameters: made in house
Procedure, shortened: as §1

[1] = with SOS, read-out: KRas Q61H mutant + SOS: % inh.
[2] = without SOS, read-out: KRas Q61H mutant: % inh.
[3] = with SOS, read-out: KRas G12C mutant + SOS: % inh.
[4] = without SOS, read-out: KRas G12C mutant: % inh.
[5] = with SOS, read-out: KRas G12D mutant + SOS: % inh.
[6] = without SOS, read-out: KRas G12D mutant: % inh.
[7] = with SOS, read-out: KRas wild type + SOS: % inh.
[8] = without SOS, read-out: KRas wild type: % inh.
[9] = with SOS, read-out: Rho-A + SOS: % inh.
[10] = without SOS, read-out: Rho-A: % inh.
[11] = with SOS, read-out: Rac-1 + SOS: % inh.
[12] = without SOS, read-out: Rac-1: % inh.

SMILES | solubility kinetic at 2 h (Kinetic solubility assay) [µM] | inhibition at 20 µM (KRas Q61H mutant; [1]) [%] | inhibition at 20 µM (KRas Q61H mutant; [2]) [%] | inhibition at 20 µM (KRas G12C mutant; [3]) [%] | inhibition at 20 µM (KRas G12C mutant; [4]) [%] | inhibition at 20 µM (KRas G12D mutant; [5]) [%] | inhibition at 20 µM (KRas G12D mutant; [6]) [%] | inhibition at 20 µM (KRas wild type; [7]) [%] | inhibition at 20 µM (KRas wild type; [8]) [%] | inhibition at 20 µM (Rho-A; [9]) [%] | inhibition at 20 µM (Rho-A; [10]) [%] | inhibition at 20 µM (Rac-1; [11]) [%] | inhibition at 20 µM (Rac-1; [12]) [%] | IC50 (KRas Q61H mutant; with SOS) [µM]
CCOCCn1ccnc1-c1nc(O)c2scc(-c3ccccn3)c2n1 [Compound 80, 2-(1-(2-Ethoxyethyl)-1H-imidazol-2-yl)-7-(pyridin-2-yl)thieno[3,2-d]pyrimidin-4-ol] | – | 51 to 75 | 76 to 100 | 51 to 75 | 51 to 75 | 76 to 100 | 76 to 100 | 51 to 75 | 76 to 100 | – | 51 to 75 | – | 76 to 100 | –
Oc1nc(-c2nccn2CCOCC(F)(F)F)nc2c(-c3ccccn3)csc12 [Compound 81, 7-(Pyridin-2-yl)-2-(1-(2-(2,2,2-trifluoroethoxy)ethyl)-1H-imidazol-2-yl)thieno[3,2-d]pyrimidin-4-ol] | – | 51 to 75 | 51 to 75 | 51 to 75 | 51 to 75 | 76 to 100 | 51 to 75 | 76 to 100 | 76 to 100 | – | 76 to 100 | – | 76 to 100 | –
CC(C)OCCn1ccnc1-c1nc(O)c2scc(-c3ccccn3)c2n1 [Compound 82, 2-(1-(2-Isopropoxyethyl)-1H-imidazol-2-yl)-7-(pyridin-2-yl)thieno[3,2-d]pyrimidin-4-ol] | – | 51 to 75 | 51 to 75 | 51 to 75 | 51 to 75 | 51 to 75 | 51 to 75 | 51 to 75 | 51 to 75 | – | 51 to 75 | – | 76 to 100 | –
CO[C@H]1C[C@@H](Nc2nc(-c3nccn3C)nc3sc(-c4ccn(C(C)C)n4)c(C)c23)C1 [Compound 96, 6-(1-isopropyl-1H-pyrazol-3-yl)-N-((1s,3s)-3-methoxycyclobutyl)-5-methyl-2-(1-methyl-1H-imidazol-2-yl)thieno[2,3-d]pyrimidin-4-amine] | – | 0 | 0 | 0 | 0 | 1 to 25 | 0 | 1 to 25 | 0 | 0 | 0 | 1 to 25 | 1 to 25 | > 10

Now from value to compound:

solubility kinetic at 2 h (Kinetic solubility assay) [µM] | inhibition at 20 µM (KRas Q61H mutant; [1]) [%] | inhibition at 20 µM (KRas Q61H mutant; [2]) [%] | inhibition at 20 µM (KRas G12C mutant; [3]) [%] | inhibition at 20 µM (KRas G12C mutant; [4]) [%] | inhibition at 20 µM (KRas G12D mutant; [5]) [%] | inhibition at 20 µM (KRas G12D mutant; [6]) [%] | inhibition at 20 µM (KRas wild type; [7]) [%] | inhibition at 20 µM (KRas wild type; [8]) [%] | inhibition at 20 µM (Rho-A; [9]) [%] | inhibition at 20 µM (Rho-A; [10]) [%] | inhibition at 20 µM (Rac-1; [11]) [%] | inhibition at 20 µM (Rac-1; [12]) [%] | IC50 (KRas Q61H mutant; with SOS) [µM] | SMILES
49 | 76 to 100 | 76 to 100 | 76 to 100 | 76 to 100 | 76 to 100 | 51 to 75 | 76 to 100 | 76 to 100 | 76 to 100 | 76 to 100 | 51 to 75 | 51 to 75 | – | CO[C@@H]1CC[C@@H](Nc2nc(-c3nccn3C)nc3sc(-c4ccn(C(C)C)n4)c(C)c23)C1 (racemic) [Compound 33, rac-6-(1-Isopropyl-1H-pyrazol-3-yl)-N-((1R,3R)-3-methoxycyclopentyl)-5-methyl-2-(1-methyl-1H-imidazol-2-yl)thieno[2,3-d]pyrimidin-4-amine]
> 400 | 76 to 100 | 76 to 100 | 76 to 100 | 76 to 100 | 76 to 100 | 76 to 100 | 76 to 100 | 76 to 100 | 76 to 100 | 76 to 100 | 76 to 100 | 76 to 100 | – | COC1CCN(c2nc(-c3nccn3C)nc3sc(-c4ccn(C(C)C)n4)c(C)c23)C1 (racemic) [Compound 34, rac-6-(1-Isopropyl-1H-pyrazol-3-yl)-4-(3-methoxypyrrolidin-1-yl)-5-methyl-2-(1-methyl-1H-imidazol-2-yl)thieno[2,3-d]pyrimidine]
> 400 | 76 to 100 | 76 to 100 | 76 to 100 | 51 to 75 | 76 to 100 | 51 to 75 | 76 to 100 | 76 to 100 | 76 to 100 | 76 to 100 | 76 to 100 | 76 to 100 | – | COCC1CCN(c2nc(-c3nccn3C)nc3sc(-c4ccn(C(C)C)n4)c(C)c23)C1 (racemic) [Compound 38, rac-6-(1-Isopropyl-1H-pyrazol-3-yl)-4-(3-(methoxymethyl)pyrrolidin-1-yl)-5-methyl-2-(1-methyl-1H-imidazol-2-yl)thieno[2,3-d]pyrimidine]
– | 51 to 75 | 76 to 100 | 51 to 75 | 51 to 75 | 51 to 75 | 76 to 100 | 51 to 75 | 76 to 100 | – | 51 to 75 | – | 51 to 75 | – | COCCn1cnc(-c2nc(O)c3scc(-c4ccccn4)c3n2)c1 [Compound 78, 2-(1-(2-Methoxyethyl)-1H-imidazol-4-yl)-7-(pyridin-2-yl)thieno[3,2-d]pyrimidin-4-ol]
– | 51 to 75 | 51 to 75 | 51 to 75 | 51 to 75 | 51 to 75 | 51 to 75 | 51 to 75 | 76 to 100 | – | 76 to 100 | – | 51 to 75 | – | COCCCn1ccnc1-c1nc(O)c2scc(-c3ccccn3)c2n1 [Compound 79, 2-(1-(3-Methoxypropyl)-1H-imidazol-2-yl)-7-(pyridin-2-yl)thieno[3,2-d]pyrimidin-4-ol]
– | 51 to 75 | 26 to 50 | 51 to 75 | 1 to 25 | 51 to 75 | 51 to 75 | 26 to 50 | 51 to 75 | – | 51 to 75 | – | 76 to 100 | – | Oc1nc(-c2nccn2CCOCc2ccccc2)nc2c(-c3ccccn3)csc12 [Compound 83, 2-(1-(2-(Benzyloxy)ethyl)-1H-imidazol-2-yl)-7-(pyridin-2-yl)thieno[3,2-d]pyrimidin-4-ol]
– | 26 to 50 | 26 to 50 | 1 to 25 | 26 to 50 | 26 to 50 | 26 to 50 | 1 to 25 | 26 to 50 | – | 51 to 75 | – | 26 to 50 | – | COc1cccn2c(-c3nc(O)c4scc(-c5ccccn5)c4n3)ncc12 [Compound 84, 2-(8-Methoxyimidazo[1,5-a]pyridin-3-yl)-7-(pyridin-2-yl)thieno[3,2-d]pyrimidin-4-ol]
